pEC50, pIC50: −log10 of the molar value.
Experiments:
ComD [1] = biological target: T1, ComD (Streptococcus gordonii, UniProt O33646); assay: cell-based
ComD [2] = biological target: T1, ComD; assay: cell-based; remark: listed apart in the source

SMILES	pEC50 (ComD [1])	pIC50 (ComD [2])
CC[C@H](C)[C@H](NC(=O)[C@H](CCCNC(=N)N)NC(=O)[C@H](C)NC(=O)[C@H](CCCNC(=N)N)NC(=O)[C@@H](NC(=O)[C@@H](N)CC(=O)O)[C@@H](C)CC)C(=O)N[C@@H](CC(N)=O)C(=O)N[C@@H](CC(N)=O)C(=O)N[C@@H](CO)C(=O)N[C@H](C(=O)N[C@@H](Cc1c[nH]c2ccccc12)C(=O)N[C@@H](CCCNC(=N)N)C(=O)N[C@@H](CC(=O)O)C(=O)N[C@H](C(=O)N[C@@H](Cc1ccccc1)C(=O)N[C@@H](CC(C)C)C(=O)N[C@@H](CCCCN)C(=O)N[C@@H](CCCNC(=N)N)C(=O)N[C@@H](CCCCN)C(=O)O)[C@@H](C)CC)[C@@H](C)CC [Peptide H4A]	6.14	
CC[C@H](C)[C@H](NC(=O)[C@H](CC(=O)O)NC(=O)[C@H](CCCNC(=N)N)NC(=O)[C@H](Cc1c[nH]c2ccccc12)NC(=O)[C@@H](NC(=O)[C@H](CO)NC(=O)[C@H](CC(N)=O)NC(=O)[C@H](CC(N)=O)NC(=O)[C@@H](NC(=O)[C@H](CCCNC(=N)N)NC(=O)[C@H](Cc1c[nH]cn1)NC(=O)[C@H](CCCNC(=N)N)NC(=O)[C@@H](NC(=O)[C@@H](N)CC(=O)O)[C@@H](C)CC)[C@@H](C)CC)[C@@H](C)CC)C(=O)N[C@@H](Cc1ccccc1)C(=O)N[C@@H](CC(C)C)C(=O)N[C@@H](C)C(=O)N[C@@H](CCCNC(=N)N)C(=O)N[C@@H](CCCCN)C(=O)O [Peptide K17A]	6.37	
CC[C@H](C)[C@H](NC(=O)[C@H](CC(=O)O)NC(=O)[C@H](CCCNC(=N)N)NC(=O)[C@H](Cc1c[nH]c2ccccc12)NC(=O)[C@@H](NC(=O)[C@H](CO)NC(=O)[C@H](CC(N)=O)NC(=O)[C@H](CC(N)=O)NC(=O)[C@@H](NC(=O)[C@H](CCCNC(=N)N)NC(=O)[C@H](Cc1c[nH]cn1)NC(=O)[C@H](CCCNC(=N)N)NC(=O)[C@@H](NC(=O)[C@@H](N)CC(=O)O)[C@@H](C)CC)[C@@H](C)CC)[C@@H](C)CC)C(=O)N[C@@H](Cc1ccccc1)C(=O)N[C@@H](CC(C)C)C(=O)N[C@@H](CCCCN)C(=O)N[C@@H](CCCNC(=N)N)C(=O)N[C@@H](C)C(=O)O [Peptide K19A]	6.57	
CC[C@H](C)[C@H](NC(=O)[C@H](CC(=O)O)NC(=O)[C@H](CCCNC(=N)N)NC(=O)[C@H](Cc1c[nH]c2ccccc12)NC(=O)[C@@H](NC(=O)[C@H](CO)NC(=O)[C@H](CC(N)=O)NC(=O)[C@H](CC(N)=O)NC(=O)[C@@H](NC(=O)[C@H](CCCNC(=N)N)NC(=O)[C@H](Cc1c[nH]cn1)NC(=O)[C@H](CCCNC(=N)N)NC(=O)[C@@H](NC(=O)[C@@H](N)CC(=O)O)[C@@H](C)CC)[C@@H](C)CC)[C@@H](C)CC)C(=O)N[C@@H](Cc1ccccc1)C(=O)N[C@@H](C)C(=O)N[C@@H](CCCCN)C(=O)N[C@@H](CCCNC(=N)N)C(=O)N[C@@H](CCCCN)C(=O)O [Peptide L16A]	6.90	
CC[C@H](C)[C@H](NC(=O)[C@H](CCCNC(=N)N)NC(=O)[C@H](Cc1c[nH]cn1)NC(=O)[C@H](CCCNC(=N)N)NC(=O)[C@@H](NC(=O)[C@@H](N)CC(=O)O)[C@@H](C)CC)C(=O)N[C@@H](C)C(=O)N[C@@H](CC(N)=O)C(=O)N[C@@H](CO)C(=O)N[C@H](C(=O)N[C@@H](Cc1c[nH]c2ccccc12)C(=O)N[C@@H](CCCNC(=N)N)C(=O)N[C@@H](CC(=O)O)C(=O)N[C@H](C(=O)N[C@@H](Cc1ccccc1)C(=O)N[C@@H](CC(C)C)C(=O)N[C@@H](CCCCN)C(=O)N[C@@H](CCCNC(=N)N)C(=O)N[C@@H](CCCCN)C(=O)O)[C@@H](C)CC)[C@@H](C)CC [Peptide N7A]	6.69	
CC[C@H](C)[C@H](NC(=O)[C@H](CCCNC(=N)N)NC(=O)[C@H](Cc1c[nH]cn1)NC(=O)[C@H](CCCNC(=N)N)NC(=O)[C@@H](NC(=O)[C@@H](N)CC(=O)O)[C@@H](C)CC)C(=O)N[C@@H](CC(N)=O)C(=O)N[C@@H](C)C(=O)N[C@@H](CO)C(=O)N[C@H](C(=O)N[C@@H](Cc1c[nH]c2ccccc12)C(=O)N[C@@H](CCCNC(=N)N)C(=O)N[C@@H](CC(=O)O)C(=O)N[C@H](C(=O)N[C@@H](Cc1ccccc1)C(=O)N[C@@H](CC(C)C)C(=O)N[C@@H](CCCCN)C(=O)N[C@@H](CCCNC(=N)N)C(=O)N[C@@H](CCCCN)C(=O)O)[C@@H](C)CC)[C@@H](C)CC [Peptide N8A]	6.16	
CC[C@H](C)[C@H](NC(=O)[C@H](CO)NC(=O)[C@H](CC(N)=O)NC(=O)[C@H](CC(N)=O)NC(=O)[C@@H](NC(=O)[C@H](CCCNC(=N)N)NC(=O)[C@H](Cc1c[nH]cn1)NC(=O)[C@H](CCCNC(=N)N)NC(=O)[C@@H](NC(=O)[C@@H](N)CC(=O)O)[C@@H](C)CC)[C@@H](C)CC)C(=O)N[C@@H](Cc1c[nH]c2ccccc12)C(=O)N[C@@H](C)C(=O)N[C@@H](CC(=O)O)C(=O)N[C@H](C(=O)N[C@@H](Cc1ccccc1)C(=O)N[C@@H](CC(C)C)C(=O)N[C@@H](CCCCN)C(=O)N[C@@H](CCCNC(=N)N)C(=O)N[C@@H](CCCCN)C(=O)O)[C@@H](C)CC [Peptide R12A]	6.90	
CC[C@H](C)[C@H](NC(=O)[C@H](CC(=O)O)NC(=O)[C@H](CCCNC(=N)N)NC(=O)[C@H](Cc1c[nH]c2ccccc12)NC(=O)[C@@H](NC(=O)[C@H](CO)NC(=O)[C@H](CC(N)=O)NC(=O)[C@H](CC(N)=O)NC(=O)[C@@H](NC(=O)[C@H](CCCNC(=N)N)NC(=O)[C@H](Cc1c[nH]cn1)NC(=O)[C@H](CCCNC(=N)N)NC(=O)[C@@H](NC(=O)[C@@H](N)CC(=O)O)[C@@H](C)CC)[C@@H](C)CC)[C@@H](C)CC)C(=O)N[C@@H](Cc1ccccc1)C(=O)N[C@@H](CC(C)C)C(=O)N[C@@H](CCCCN)C(=O)N[C@@H](C)C(=O)N[C@@H](CCCCN)C(=O)O [Peptide R18A]	6.39	
CC[C@H](C)[C@H](N)C(=O)N[C@@H](CCCNC(=N)N)C(=O)N[C@@H](Cc1c[nH]cn1)C(=O)N[C@@H](CCCNC(=N)N)C(=O)N[C@H](C(=O)N[C@@H](CC(N)=O)C(=O)N[C@@H](CC(N)=O)C(=O)N[C@@H](CO)C(=O)N[C@H](C(=O)N[C@@H](Cc1c[nH]c2ccccc12)C(=O)N[C@@H](CCCNC(=N)N)C(=O)N[C@@H](CC(=O)O)C(=O)N[C@H](C(=O)N[C@@H](Cc1ccccc1)C(=O)N[C@@H](CC(C)C)C(=O)N[C@@H](CCCCN)C(=O)N[C@@H](CCCNC(=N)N)C(=O)N[C@@H](CCCCN)C(=O)O)[C@@H](C)CC)[C@@H](C)CC)[C@@H](C)CC [desD1]		6.01
CC[C@H](C)[C@H](NC(=O)[C@H](CC(=O)O)NC(=O)[C@H](CCCNC(=N)N)NC(=O)[C@H](Cc1c[nH]c2ccccc12)NC(=O)[C@@H](NC(=O)[C@H](CO)NC(=O)[C@H](CC(N)=O)NC(=O)[C@H](CC(N)=O)NC(=O)[C@@H](NC(=O)[C@H](CCCNC(=N)N)NC(=O)[C@H](Cc1c[nH]cn1)NC(=O)[C@H](CCCNC(=N)N)NC(=O)[C@@H](NC(=O)[C@@H](N)CC(=O)O)[C@@H](C)CC)[C@@H](C)CC)[C@@H](C)CC)C(=O)N[C@@H](Cc1ccccc1)C(=O)N[C@@H](CC(C)C)C(=O)N[C@@H](CCCCN)C(=O)N[C@@H](CCCNC(=N)N)C(=O)O [desK19]	6.51	

— paper PMC12667739 (ACS infectious diseases, 2025)
